According to PMC8034593 (The FEBS journal, 2020):

Target: KanJ (kanamycin B dioxygenase) (Streptomyces kanamyceticus, UniProt Q6L732)
Assay: isothermal titration calorimetry
Format: binding

Sequence of KanJ (kanamycin B dioxygenase) (Q6L732 whole entry): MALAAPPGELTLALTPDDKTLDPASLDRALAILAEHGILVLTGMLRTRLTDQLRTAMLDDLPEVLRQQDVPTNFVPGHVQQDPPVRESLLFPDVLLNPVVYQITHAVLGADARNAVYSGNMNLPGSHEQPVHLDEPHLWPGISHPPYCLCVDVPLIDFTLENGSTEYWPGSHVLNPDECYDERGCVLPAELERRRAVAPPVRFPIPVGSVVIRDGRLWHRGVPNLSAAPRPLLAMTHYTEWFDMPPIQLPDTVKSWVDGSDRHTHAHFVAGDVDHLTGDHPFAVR

Compound: NC[C@H]1O[C@H](O[C@H]2[C@H](O)[C@@H](O[C@H]3O[C@H](CO)[C@@H](O)[C@H](N)[C@H]3O)[C@H](N)C[C@@H]2N)[C@H](N)[C@@H](O)[C@@H]1O [KAN, kanamycin B]
- Kd: 1.54 µM
